Earlier results as cited in article PMC5641599 (Molecular Metabolism, 2017).
Like-named read-outs stand apart in the source and are kept apart here.

Columns and labels:
MC4R variants [1] = conditions: cited from earlier work
MC4R variants [2] = conditions: cited from earlier work; remark: listed apart in the source

## NDP-MSH
MC4R variants [1]; MC4R C40R, COS-7 cell line, ref Tarnow P, J Biol Chem, 2003
  cAMP Emax - Ligand no.3: 118.6 % of WT
MC4R variants [1]; MC4R C40R, ref Rong R, Clin Endocrinol, 2006
  cAMP Emax - Ligand no.3: 87.0 % of WT
MC4R variants [1]; MC4R C40Y, COS-7 cell line, ref Hughes DA, Hum Genet, 2009
  cAMP Emax - Ligand no.3: 103.0 % of WT
MC4R variants [1]; MC4R D37G, ref Hughes DA, Hum Genet, 2009
  cAMP Emax - Ligand no.3: 83.0 % of WT
MC4R variants [1]; MC4R F280AfsX12, ref Xiang Z, Biochemistry, 2006
  cAMP Emax - Ligand no.3: 0.0 % of WT
MC4R variants [1]; MC4R I251WfsX34, ref Xiang Z, Biochemistry, 2010
  cAMP Emax - Ligand no.3: 0.0 % of WT
MC4R variants [1]; MC4R L211MfsX6, HEK293, ref Ho G, J Biol Chem, 1999
  cAMP Emax - Ligand no.3: 0.0 % of WT
MC4R variants [1]; MC4R L211MfsX6, ref Xiang Z, Biochemistry, 2006
  cAMP Emax - Ligand no.3: 0.0 % of WT
MC4R variants [1]; MC4R Q43X, ref Alfieri A, Gene, 2010
  cAMP Emax - Ligand no.3: 0.0 % of WT
MC4R variants [1]; MC4R Q307X, COS-7 cell line, ref Reinehr T, Obesity, 2009
  cAMP Emax - Ligand no.3: 0.0 % of WT
MC4R variants [1]; MC4R Q307X, ref Santoro N, BMC Med Genet, 2009
  cAMP Emax - Ligand no.3: 0.0 % of WT
MC4R variants [1]; MC4R R7C, COS-7 cell line, ref Hinney A, J Clin Endocrinol Metab, 2006
  cAMP Emax - Ligand no.3: 75.0 % of WT
MC4R variants [1]; MC4R R7C, ref Fan ZC, J Cell Mol Med, 2009
  cAMP Emax - Ligand no.3: 102.0 % of WT
MC4R variants [1]; MC4R S19AfsX34, ref Alfieri A, Gene, 2010
  cAMP Emax - Ligand no.3: 0.0 % of WT
MC4R variants [1]; MC4R S36T, COS-7 cell line, ref Hughes DA, Hum Genet, 2009
  cAMP Emax - Ligand no.3: 88.0 % of WT
MC4R variants [1]; MC4R T11A, ref Tao YX, J Clin Endocrinol Metab, 2005
  cAMP Emax - Ligand no.3: 109.0 % of WT
MC4R variants [1]; MC4R T246DfsX41, HEK293, ref Ho G, J Biol Chem, 1999
  cAMP Emax - Ligand no.3: 0.0 % of WT
MC4R variants [1]; MC4R VADML88_92del, ref Donohoue PA, J Clin Endocrinol Metab, 2003
  cAMP Emax - Ligand no.3: 0.0 % of WT
MC4R variants [1]; MC4R W16X, COS-7, ref Bolze F, Pharmacogenomics J, 2013
  cAMP Emax - Ligand no.3: 20.0 % of WT
MC4R variants [1]; MC4R Y35C, ref Rong R, Clin Endocrinol, 2006
  cAMP Emax - Ligand no.3: 105.0 % of WT
MC4R variants [1]; MC4R Y35X, ref Xiang Z, Biochemistry, 2006
  cAMP Emax - Ligand no.3: 0.0 % of WT
MC4R variants [2]; MC4R A303P, ref Hohenadel MG, Int J Obes, 2014
  Binding Bmax (% of WT): 22.4 % of WT
MC4R variants [2]; MC4R A303T, ref Tan K, Endocrinology, 2009
  Binding Bmax (% of WT): 86.6 % of WT
MC4R variants [2]; MC4R C84R, HEK293 cell line, ref Huang H, Int J Biol Sci, 2014
  Binding Bmax (% of WT): 5.0 % of WT
MC4R variants [2]; MC4R C84R, ref Fan ZC, J Cell Mol Med, 2009
  Binding Bmax (% of WT): 0.0 % of WT
MC4R variants [2]; MC4R C271Y, HEK293 cell line, ref Huang H, Int J Biol Sci, 2014
  Binding Bmax (% of WT): 70.0 % of WT
MC4R variants [2]; MC4R C271Y, ref Tao YX, Endocrinology, 2003
  Binding Bmax (% of WT): 0.0 % of WT
MC4R variants [2]; MC4R C271Y, ref Xiang Z, Biochemistry, 2006
  Binding Bmax (% of WT): 6.7 % of WT
MC4R variants [2]; MC4R D90N, COS-7 cell line, ref Biebermann H, Diabetes, 2003
  Binding Bmax (% of WT): 80.0 % of WT
MC4R variants [2]; MC4R D90N, ref Xiang Z, Biochemistry, 2010
  Binding Bmax (% of WT): 108.1 % of WT
MC4R variants [2]; MC4R E61K, ref Tan K, Endocrinology, 2009
  Binding Bmax (% of WT): 39.6 % of WT
MC4R variants [2]; MC4R E61K, ref Xiang Z, Biochemistry, 2010
  Binding Bmax (% of WT): 2.0 % of WT
MC4R variants [2]; MC4R E308K, ref Xiang Z, Biochemistry, 2010
  Binding Bmax (% of WT): 37.8 % of WT
MC4R variants [2]; MC4R F51L, ref Tao YX, J Clin Endocrinol Metab, 2005
  Binding Bmax (% of WT): 108.0 % of WT
MC4R variants [2]; MC4R F51L, ref Xiang Z, Biochemistry, 2010
  Binding Bmax (% of WT): 113.5 % of WT
MC4R variants [2]; MC4R G55D, ref Tan K, Endocrinology, 2009
  Binding Bmax (% of WT): 68.6 % of WT
MC4R variants [2]; MC4R G55V, ref Hohenadel MG, Int J Obes, 2014
  Binding Bmax (% of WT): 55.4 % of WT
MC4R variants [2]; MC4R G55V, ref Tan K, Endocrinology, 2009
  Binding Bmax (% of WT): 128.5 % of WT
MC4R variants [2]; MC4R G98R, HEK293 cell line, ref Huang H, Int J Biol Sci, 2014
  Binding Bmax (% of WT): 0.0 % of WT
MC4R variants [2]; MC4R G98R, ref Xiang Z, Biochemistry, 2010
  Binding Bmax (% of WT): 0.541 % of WT
MC4R variants [2]; MC4R I69R, HEK293 cell line, ref Huang H, Int J Biol Sci, 2014
  Binding Bmax (% of WT): 0.0 % of WT
MC4R variants [2]; MC4R I69T, ref Tan K, Endocrinology, 2009
  Binding Bmax (% of WT): 24.8 % of WT
MC4R variants [2]; MC4R I69T, ref Xiang Z, Biochemistry, 2010
  Binding Bmax (% of WT): 8.1 % of WT
MC4R variants [2]; MC4R I102S, ref Roubert P, J Endocrinol, 2010
  Binding Bmax (% of WT): 23.5 % of WT
MC4R variants [2]; MC4R I102S, ref Tao YX, J Clin Endocrinol Metab, 2005
  Binding Bmax (% of WT): 0.0 % of WT
MC4R variants [2]; MC4R I102S, ref Xiang Z, Biochemistry, 2006
  Binding Bmax (% of WT): 1.6 % of WT
MC4R variants [2]; MC4R I102T, ref Larsen LH, J Clin Endocrinol Metab, 2005
  Binding Bmax (% of WT): 115.0 % of WT
MC4R variants [2]; MC4R I102T, ref Roubert P, J Endocrinol, 2010
  Binding Bmax (% of WT): 51.0 % of WT
MC4R variants [2]; MC4R I102T, ref Tao YX, J Clin Endocrinol Metab, 2005
  Binding Bmax (% of WT): 20.0 % of WT
MC4R variants [2]; MC4R I301T, ref Nijenhuis WA, J Biol Chem, 2003
  Binding Bmax (% of WT): 10.0 % of WT
